Assay results reported in patent publication US12534469B2 (CHILDREN'S HOSPITAL MEDICAL CENTER, priority 2020, dated 2026).

Assays:
[1] = target: T1, FLT3 (Homo sapiens, UniProt P36888); assay: Reaction Biology NanoBRET target engagement assay, FLT3; assay type: cell-based; details: transfected HEK-293 cells
T1 construct: using full-length kinases in the presence of cellular concentrations of ATP in live, uncompromised cells; assay by Reaction Biology; host or cells: HEK-293 (ATCC), transient transfection
T1 sequence (P36888 27-993): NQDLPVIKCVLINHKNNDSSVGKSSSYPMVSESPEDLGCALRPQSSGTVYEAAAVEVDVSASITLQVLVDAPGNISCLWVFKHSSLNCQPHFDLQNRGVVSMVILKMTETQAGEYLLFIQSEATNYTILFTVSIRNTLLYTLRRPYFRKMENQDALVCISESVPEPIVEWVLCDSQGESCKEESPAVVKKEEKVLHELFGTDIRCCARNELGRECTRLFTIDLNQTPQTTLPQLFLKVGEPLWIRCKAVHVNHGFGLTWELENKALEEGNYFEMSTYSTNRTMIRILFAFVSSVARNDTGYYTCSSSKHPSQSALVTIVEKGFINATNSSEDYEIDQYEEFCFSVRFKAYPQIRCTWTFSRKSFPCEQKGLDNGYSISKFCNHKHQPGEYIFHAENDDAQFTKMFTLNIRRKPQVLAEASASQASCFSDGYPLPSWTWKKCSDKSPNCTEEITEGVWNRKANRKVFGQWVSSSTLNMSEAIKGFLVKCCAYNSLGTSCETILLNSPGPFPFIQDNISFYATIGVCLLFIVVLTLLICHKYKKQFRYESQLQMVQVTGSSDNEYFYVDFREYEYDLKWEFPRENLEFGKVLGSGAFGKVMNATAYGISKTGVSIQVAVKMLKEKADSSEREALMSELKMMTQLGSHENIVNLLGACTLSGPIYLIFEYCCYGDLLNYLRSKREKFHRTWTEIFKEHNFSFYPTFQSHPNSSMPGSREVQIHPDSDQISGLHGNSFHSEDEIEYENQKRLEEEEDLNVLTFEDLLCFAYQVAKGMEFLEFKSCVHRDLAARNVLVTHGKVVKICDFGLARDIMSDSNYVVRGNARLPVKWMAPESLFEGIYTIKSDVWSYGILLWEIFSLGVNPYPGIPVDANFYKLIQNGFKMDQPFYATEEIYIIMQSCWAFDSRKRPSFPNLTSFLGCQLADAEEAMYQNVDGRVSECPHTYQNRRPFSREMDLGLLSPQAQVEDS
Source text: (§1) The NanoBRET assay measures kinase engagement in real time in the context of the intact cell. Unlike the previously described biochemical kinase assay methodologies in Examples 26-27, the NanoBRET assay measures the binding and activity characteristics under equilibrium conditions using full-length kinases in the presence of cellular concentrations of ATP in live, uncompromised cells. As such, the assay provides a more relevant assessment of kinase potency and selectivity that would be expected to be observed in the native cellular environment, where potency is often considerably lower than that observed in the isolated biochemical assays (Vasta, J. D. et al., (2018) Cell Chem. Biol. 25, 206-214). The assay uses a Kinase-NanoLuc® fusion vector expressing a kinase protein to which a luciferase tag has been added, a cell-permeant fluorescent NanoBRET™ tracer, a NanoLuc® substrate, and an extracellular NanoLuc® inhibitor. Upon expression of the luciferase-tagged kinase, cells will produce a strong BRET signal only in the presence of the NanoBRET™ tracer. The extracellular NanoLuc® inhibitor ensures that the BRET signal observed emanates only from live cells. Because the BRET signal has tight distance constraints, addition of the test compound will decrease the BRET signal if the compound competes with the NanoBRET™ tracer for binding to the kinase domain. Under the appropriate tracer conditions established by the manufacturer, quantitative intracellular affinity and relative potency can then be determined using Mass Action model equations.
(§2) HEK-293 cells were purchased from ATCC. FuGENEHD Transfection Reagent, Kinase-NanoLucfusion plasmids, Transfection Carrier DNA, NanoBRETTracers and dilution buffer, NanoBRETNano-Glo Substrate, Extracellular NanoLucInhibitor were obtained from Promega.
(§3) Assays were conducted following Promega assay protocol with some modifications. HEK-293 Cells were transiently transfected with Kinase-NanoLucFusion Vector DNA by FuGENEHD Transfection Reagent. Testing compounds were delivered into 384 well assay plate by Echo 550 (LabcyteInc, Sunnyvale, CA). Transfected cells were harvested and mixed with NanoBRETTracer Reagent and dispensed into 384 well plates and incubated at 37° C. in 5% CO2 cell culture incubator for 1 hour. The NanoBRETNano-Glo Substrate plus Extracellular NanoLucInhibitor Solution were added into the wells of the assay plate and incubated for 2-3 minutes at room temperature. The donor emission wavelength (460 nm) and acceptor emission wavelength (600 nm) were measured in the EnVisionplate reader. The BRET Ratios were calculated. BRET Ratio=[(Acceptor sample÷Donor sample)−(Acceptor no-tracer control÷Donor no-tracer control)]. The IC50 values of compounds were calculated with Prism GraphPad program.
(§4) • 1). Cultivate HEK-293 cells (70-80% confluence) appropriately prior to assay. Trypsinize and collect HEK-293 cells. • 2). Prepare lipid: DNA complexes as follows: • a. Prepare a 10 μg/ml solution of DNA in Opti-MEM without serum that consists of the following ratios of carrier DNA and DNA encoding NanoLuc® fusion. 9.0 μg/mL of Transfection Carrier DNA, 1.0 μg/mL of NanoLuc fusion vector DNA and 1 mL of Opti-MEM without phenol red. Mix thoroughly. • b. Add 30 μl of FuGENE HD Transfection Reagent into each milliliter of DNA mixture to form lipid:DNA complex. • c. Mix by inversion 10 times. • d. Incubate at ambient temperature for 20 minutes to allow complexes to form. • 3). In a sterile, conical tube, mix 1 part of lipid:DNA complex with 20 parts of HEK-293 cells in suspension. Mix gently by inversion 5 times. • 4). Dispense cells+lipid:DNA complex into a sterile tissue culture dish and incubate for 22-24 hours. 2. Addition of Test Compounds (Dry Plate Shooting)
(§5) Each test compound is delivered from the compound source plate to the wells of 384-well white NBS plate by Echo 550.
• 1). […]

[2] = target: T2, IRAK4 (Homo sapiens, UniProt Q9NWZ3); assay: Reaction Biology NanoBRET target engagement assay, IRAK4; assay type: cell-based; details: transfected HEK-293 cells
T2 sequence (Q9NWZ3 1-460): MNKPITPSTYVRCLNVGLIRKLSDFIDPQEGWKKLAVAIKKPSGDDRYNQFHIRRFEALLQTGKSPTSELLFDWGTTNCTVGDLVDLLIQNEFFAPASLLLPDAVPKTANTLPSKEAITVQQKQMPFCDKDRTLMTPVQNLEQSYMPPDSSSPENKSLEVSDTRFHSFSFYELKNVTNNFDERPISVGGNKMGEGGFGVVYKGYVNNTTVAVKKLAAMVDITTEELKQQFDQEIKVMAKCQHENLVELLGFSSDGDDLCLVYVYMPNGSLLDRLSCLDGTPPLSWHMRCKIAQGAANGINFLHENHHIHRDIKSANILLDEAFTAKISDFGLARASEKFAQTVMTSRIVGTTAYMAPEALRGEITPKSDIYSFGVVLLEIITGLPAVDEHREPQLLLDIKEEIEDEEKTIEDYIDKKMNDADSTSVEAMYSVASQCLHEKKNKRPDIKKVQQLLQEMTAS
Source text: as §1, §2, §3, §4, §5
• 1). […]

Row | SMILES | IC50 [1] | IC50 [2]
1 | COc1cc2ncc(-c3nc(N[C@@H]4CCCNC4)c(F)cc3F)n2nc1C(C)(C)O [Compound 127, (R)-2-(3-(3,5-difluoro-6-(piperidin-3-ylamino)pyridin-2-yl)-7-methoxyimidazo[1,2-b]pyridazin-6-yl)propan-2-ol] | 196 nM | 30 nM
2 | COc1cc2ncc(-c3cccc(N[C@H]4CNCC[C@@H]4F)n3)n2nc1C1CC1 [Compound 102, 6-(6-cyclopropyl-7-methoxyimidazo[1,2-b]pyridazin-3-yl)-N-((3S,4S)-4-fluoropiperidin-3-yl)pyridin-2-amine] | 4 nM | 2 nM
3 | COc1cc2ncc(-c3nc(N[C@@H]4CCCNC4)c(F)cc3F)n2nc1C1CC1 [Compound 106, (R)-6-(6-cyclopropyl-7-methoxyimidazo[1,2-b]pyridazin-3-yl)-3,5-difluoro-N-(piperidin-3-yl)pyridin-2-amine] | < 0.5 nM | < 0.5 nM
4 | c1cc(N[C@@H]2CCCNC2)nc(-c2cnc3ccc(-c4cnn5ccccc45)nn23)c1 [Compound 19, (R)-N-(piperidin-3-yl)-6-(6-(pyrazolo[1,5-a]pyridin-3-yl)imidazo[1,2-b]pyridazin-3-yl)pyridin-2-amine] | 142 nM | 511 nM
5 | COc1cc2ncc(-c3cccc(N[C@H]4CNC[C@@H]4F)n3)n2nc1C1CC1 [Compound 96, 6-(6-cyclopropyl-7-methoxyimidazo[1,2-b]pyridazin-3-yl)-N-((3S,4S)-4-fluoropyrrolidin-3-yl)pyridin-2-amine] | 18 nM | 2 nM
6 | COc1cc2ncc(-c3nc(N[C@H]4CNC[C@@H]4F)c(F)cc3F)n2nc1C(C)(C)O [Compound 126, 2-(3-(3,5-difluoro-6-(((3S,4S)-4-fluoropyrrolidin-3-yl)amino)pyridin-2-yl)-7-methoxyimidazo[1,2-b]pyridazin-6-yl)propan-2-ol] | 1160 nM | 7 nM
7 | COc1cc2ncc(-c3cccc(N[C@H]4CNC[C@@H]4C(F)(F)F)n3)n2nc1C1CC1 [Compound 99, 6-(6-cyclopropyl-7-methoxyimidazo[1,2-b]pyridazin-3-yl)-N-((3R,4S)-4-(trifluoromethyl)pyrrolidin-3-yl)pyridin-2-amine] | 3 nM | 3 nM
8 | COc1cc2ncc(-c3nc(N[C@H]4CNCC[C@@H]4F)c(F)cc3F)n2nc1C1CC1 [Compound 108, 6-(6-cyclopropyl-7-methoxyimidazo[1,2-b]pyridazin-3-yl)-3,5-difluoro-N-((3S,4S)-4-fluoropiperidin-3-yl)pyridin-2-amine] | < 0.5 nM | < 0.5 nM

More lines, now with the values ahead:

Row | IC50 [1] | IC50 [2] | SMILES
9 | 367 nM | 54 nM | F[C@H]1CNC[C@@H]1Nc1cccc(-c2cnc3ccc(-c4cnn5ccccc45)nn23)n1 [Compound 9, N-((3S,4S)-4-fluoropyrrolidin-3-yl)-6-(6-(pyrazolo[1,5-a]pyridin-3-yl)imidazo[1,2-b]pyridazin-3-yl)pyridin-2-amine]
10 | 4890 nM | < 0.5 nM | COc1cc2ncc(-c3nc(N[C@H]4CNC[C@@H]4F)c(F)cc3F)n2nc1C1CC1 [Compound 107, 6-(6-cyclopropyl-7-methoxyimidazo[1,2-b]pyridazin-3-yl)-3,5-difluoro-N-((3S,4S)-4-fluoropyrrolidin-3-yl)pyridin-2-amine]
11 | 102 nM | 15 nM | COc1cc2ncc(-c3nc(N[C@H]4CNCC[C@@H]4F)c(F)cc3F)n2nc1C(C)(C)O [Compound 128, 2-(3-(3,5-difluoro-6-(((3S,4S)-4-fluoropiperidin-3-yl)amino)pyridin-2-yl)-7-methoxyimidazo[1,2-b]pyridazin-6-yl)propan-2-ol]
12 | 226 nM | 98 nM | COc1cc2ncc(-c3cccc(N[C@H]4CNC[C@@H]4F)n3)n2nc1C(C)(O)C(F)(F)F (single isomer, unassigned; fast-eluting) [Compound 133]
